Test [1] relates to Candida albicans Gu5. The note with it: Gu5, 12 h.
Test [2] has as its system Candida albicans F5. The conditions noted are these: F5, 12 h.
Test [3] deals with Saccharomyces cerevisiae ATCC 9763.
Test [4] relates to Candida parapsilosis ATCC 22019.
Test [5] concerns reference and fluconazole-resistant clinical strains. The conditions noted are these: 12 h.
Test [6] has as its system Candida albicans B3. The conditions noted are these: B3, 12 h.
Test [7] has as its system Candida krusei ATCC 6258.
A further test deals with S. cerevisiae ATCC 9763. In words: Minimal fungicidal concentration, spot assay. It is filed as cell-based. The conditions noted are these: minimal fungicidal concentration that kills 99% of cells. The procedure:
(§1) To establish the possible mode of action for Compound 1-R8, we have analysed the killing activity and determined minimal fungicidal concentrations (MFCs) (Table 4). Additionally, killing kinetics analysis against pathogenic C. albicans ATCC 10231 was performed (Figure 2).
(§2) Minimum fungicidal concentrations (MFCs) were determined as described previously by spot assay. The MFC was determined as the lowest concentration of the test compound in which no recovery of microorganisms was observed.

Test [8] deals with Candida glabrata ATCC 90030.
Test [9] relates to Candida albicans Gu4. The note with it: Gu4, 12 h.
The test system of the next test is C. glabrata DSM 11226. Description: microbe, parasite or virus in culture. It is filed as cell-based. The note with it: DSM 11226. As for the experimental part:
as §1, §2

A further test relates to C. krusei DSM 6128. Description: microbe, parasite or virus in culture. The note with it: DSM 6128. It is filed as cell-based. As for the experimental part: as §1, §2
Another test deals with C. albicans ATCC 10231. Description: microbe, parasite or virus in culture. It is filed as cell-based. The note with it: ATCC 10231. As for the experimental part:
as §1, §2

A further test has as its system C. parapsilosis DSM 5784. In words: microbe, parasite or virus in culture. It is filed as cell-based. The note with it: DSM 5784. As for the experimental part:
as §1, §2

Test [10] relates to Candida albicans B4. The conditions noted are these: B4, 12 h.
The test system of the next test is HEPG2. Description: cells. It is filed as cell-based, human. As for the experimental part: (§3) The investigated compounds were screened for their in vitro antiproliferative activity towards a human embryonic kidney cell line (HEK-293) and human liver cancer cell line (HEPG2) using colorimetric MTT.
(§4) The human embryonic kidney cell line (HEK-293) and human liver cancer cell line (HEPG2) were purchased from ATCC (Manassas, Virginia, USA). HEK-293 was cultured in Dulbecco’s Modified Eagle Medium (Corning, NY, USA) and HEPG2 in Minimum Essential Medium Eagle (Corning, NY, USA). For each cell line, the culture medium was supplemented with 10% fetal bovine serum, 2 mM L-glutamine, and antibiotics: penicillin 62.6 µg mL^−1 and streptomycin 40 µg mL^−1. The cells were cultured at the humidified atmosphere of 5% CO2/95% air and routinely tested for Mycoplasma contamination.
(§5) Antiproliferative activity of the compounds was determined by (3-(4,5-dimethylthiazol-2-yl)-2,5-diphenyltetrazolium bromide (MTT, Sigma-Aldrich, St. Louis, MO, USA) assay, which involves the assessment of cell viability by the measurement of the cellular oxidoreductase activity. Briefly, cells were seeded into 96-well culture plates and were allowed to adhere overnight. The investigated compounds were dissolved in DMSO and added to wells (1% final concentration of DMSO) in various concentrations. After 72 h incubation, 20 µL of MTT solution in PBS (4 mg mL^−1) was added to each well, and plates were incubated for an additional 3h in standard culture conditions. After that, the medium was aspirated, and formazan crystals were dissolved in DMSO. The absorbance was determined at 570 nm with a microplate reader (Asys UVM 340 Microplate Reader, Biochrom, Cambridge, UK). All experiments were performed three times independently in triplicate.

Another test relates to HEK-293. In words: cells. It is filed as cell-based, human. The procedure:
as §3, §4, §5

Test [11] concerns Candida albicans ATCC 10231.
In test [12] the test system is Candida albicans F2. The note with it: F2, 12 h.
Test [13] deals with T1, yeast topoisomerase II (Saccharomyces cerevisiae, UniProt P06786). Details: method as in PMID 33572407. The note with it: read-out: IC50 (yeast topoisomerase II relaxation); cited from earlier work.
T1 sequence (P06786 whole entry): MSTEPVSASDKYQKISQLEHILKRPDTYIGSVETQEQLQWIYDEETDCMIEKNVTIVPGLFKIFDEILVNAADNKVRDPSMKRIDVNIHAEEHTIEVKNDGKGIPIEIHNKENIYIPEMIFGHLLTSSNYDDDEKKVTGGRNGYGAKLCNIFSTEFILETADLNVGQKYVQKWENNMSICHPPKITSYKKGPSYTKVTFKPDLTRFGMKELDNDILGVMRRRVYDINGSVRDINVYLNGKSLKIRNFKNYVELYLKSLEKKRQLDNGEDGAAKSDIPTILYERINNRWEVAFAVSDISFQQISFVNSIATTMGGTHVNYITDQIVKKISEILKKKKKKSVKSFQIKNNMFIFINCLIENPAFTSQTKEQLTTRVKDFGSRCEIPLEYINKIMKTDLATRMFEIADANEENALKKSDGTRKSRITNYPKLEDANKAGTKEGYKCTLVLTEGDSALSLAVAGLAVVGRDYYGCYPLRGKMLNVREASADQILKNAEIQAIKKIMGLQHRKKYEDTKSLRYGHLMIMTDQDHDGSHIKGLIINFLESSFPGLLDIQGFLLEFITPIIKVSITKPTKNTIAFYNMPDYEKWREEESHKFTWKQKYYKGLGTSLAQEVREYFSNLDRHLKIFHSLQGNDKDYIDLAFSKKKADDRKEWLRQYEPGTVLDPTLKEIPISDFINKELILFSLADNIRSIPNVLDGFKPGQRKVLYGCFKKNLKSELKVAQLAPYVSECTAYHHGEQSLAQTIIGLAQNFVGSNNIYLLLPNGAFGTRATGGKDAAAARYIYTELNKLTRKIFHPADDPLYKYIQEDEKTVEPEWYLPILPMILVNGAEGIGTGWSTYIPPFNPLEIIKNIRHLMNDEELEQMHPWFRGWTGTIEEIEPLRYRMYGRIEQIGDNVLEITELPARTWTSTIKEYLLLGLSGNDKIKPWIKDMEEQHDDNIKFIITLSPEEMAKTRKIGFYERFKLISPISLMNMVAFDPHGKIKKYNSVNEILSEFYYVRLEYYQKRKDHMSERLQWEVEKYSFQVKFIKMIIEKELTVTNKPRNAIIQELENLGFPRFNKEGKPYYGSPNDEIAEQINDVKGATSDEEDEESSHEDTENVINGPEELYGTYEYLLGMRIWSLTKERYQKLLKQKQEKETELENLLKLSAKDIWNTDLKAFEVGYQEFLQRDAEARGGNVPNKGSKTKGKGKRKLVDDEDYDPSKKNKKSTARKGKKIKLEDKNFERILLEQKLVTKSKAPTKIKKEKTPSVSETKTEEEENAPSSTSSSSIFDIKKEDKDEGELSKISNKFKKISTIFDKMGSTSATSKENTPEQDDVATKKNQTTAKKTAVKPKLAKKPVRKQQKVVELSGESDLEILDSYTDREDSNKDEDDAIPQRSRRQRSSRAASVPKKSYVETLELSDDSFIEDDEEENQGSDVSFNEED
For test [14], the system named is Saccharomyces cerevisiae ATCC 9763. In words: microbe, parasite or virus in culture. The note with it: ATCC9763, 24 h, pH 7.
The test system of test [15] is C. albicans ATCC 10231 cells. Description: Fluorescence microscopy of uptake and accumulation. The note with it: 256 μg mL^−1 (8 × MFC of Compound 1-R8).
Description: Candida albicans ATCC 10231 strain were grown in the YPG medium overnight (16–18 h) at 30 °C, washed twice with sterile phosphate-buffered saline (PBS) and resuspended in RPMI 1640 at a cell density of 2 × 10^7 cells mL^−1. The inoculum (5 mL) was added to 5 mL RPMI 1640 with 256 μg mL^−1 of tested compounds. After appropriate period of time, 2 mL of cell suspension was washed three times with sterile phosphate-buffered saline (PBS). If appropriate, cells where resuspended in 1 mL of PBS and 5 μL of 2 mg mL^−1 propidium iodide (PI, Sigma-Aldrich, St. Louis, MO, USA) were added and incubated for 30 min and then rinsed three times with PBS buffer. After that, cells were resuspended in 5 μL 90% (by volume) glycerol/10% (by volume) 1 × PBS and transferred to a microscopic slide. The cells were examined with the Olympus BX-60 fluorescence microscope (λex = 330–385 nm, λem ≥ 420 nm, lens × 40) equipped with the Olympus XC50 digital camera (Olympus Corporation, Tokyo, Japan) or LSM800 T-PMT confocal microscope with a CCD camera (ZEISS, Göttingen, Germany). Images were analysed and processed with cellSens Dimension and ZEN Blue software [47].
The subject of test [16] is Candida parapsilosis ATCC 22019. In words: microbe, parasite or virus in culture. The conditions noted are these: Lodderomyces parapsilosis, ATCC22019, 24 h, pH 7.
In test [17] the test system is Candida albicans Gu5. Description: microbe, parasite or virus in culture.
Test [18] deals with T1, yeast topoisomerase II. In words: Formation of cleavable complexes in vitro. The note with it: 0.1-10 μM, pBR322 plasmid DNA. It is filed as biochemical. As for the experimental part: Cleavage assay of yeast topoisomerase II was performed according to the formation of cleavable complexes kit from Inspiralis. The experimental conditions were the same as for the relaxation assay except for the amount of yeast topoisomerase II (16 times more enzyme was used). The reaction was initiated by the addition of the enzyme and allowed to proceed for 10 min at 30 °C. Then, 0.35% SDS and 0.3 mg mL^−1 proteinase K (A&A Biotechnology, Gdynia, Poland) was added, and the probes were incubated in 56 °C for 1 h. The reaction was terminated by the addition of 100 mM Tris-HCl pH 8, 10 mM EDTA, 0.5 mg mL^−1 Bromophenol Blue. Extraction with chloroform:isoamyl alcohol (24:1, by volume) was performed, and mixtures were analysed on the 1.2% agarose gel with 0.5 µg mL^−1 ethidium bromide in 1x TAE buffer, 18 h, 1.1 V cm^−1. Gel was photographed with the Gel Doc XR+Gel Documentation System.

Another test relates to reference strains. Description: Antifungal activity, summary over reference strains. It is filed as cell-based. Details: key to Antifungal Activity (level): (−) Means no antifungal activity; (±) low activity; (+) moderate activity; (++) high activity at the concentration mentioned.
Test [19] relates to Candida albicans F5. Description: microbe, parasite or virus in culture.
The subject of test [20] is Candida glabrata ATCC 90030. In words: microbe, parasite or virus in culture. The conditions noted are these: Nakaseomyces glabratus, ATCC90030, 24 h, pH 7.
In test [21] the test system is Candida albicans ATCC 10231. Description: microbe, parasite or virus in culture.
Test [22] concerns Candida albicans F2. Description: microbe, parasite or virus in culture.
For test [23], the system named is Candida albicans B3. In words: microbe, parasite or virus in culture.
The target of test [24] is T1, yeast topoisomerase II. In words: Yeast topoisomerase II relaxation assay. It is filed as biochemical. The note with it: supercoiled pBR322, tested at 1-200 μM. The procedure:
Due to the known activity of acridine and acridone derivatives as human topoisomerase inhibitors widely analysed for cancer chemotherapy, we decided to analyse the influence of Compound 1 as well as its R8 conjugate on the fungal equivalent of that enzyme. The relaxation of supercoiled plasmid DNA by yeast topoisomerase II (yTOPO II) was studied in the presence of different concentrations of both compounds.
The inhibition of yeast topoisomerase II was analysed according to the relaxation assay kit from Inspiralis (Inspiralis Limited, Norwich, UK). Briefly, 250 ng of supercoiled pBR322 DNA (Thermo Fisher Scientific, Waltham, MA, USA), 1 mM ATP (Inspiralis Limited, UK), and 1–200 μM of the analysed compound were mixed with reaction buffer (1 mM Tris-HCl (pH 7.9), 10 mM KCl, 0.5 mM MgCl2, 0.2 % (by volume) glycerol). The reaction was initiated by the addition of an enzyme, allowed to proceed at 30 °C for 30 min and terminated by addition of 40% (m/V) sucrose, 100 mM Tris-HCl pH 8, 10 mM EDTA, and 0.5 mg mL^−1 Bromophenol Blue. Two-step extraction with chloroform:isoamyl alcohol (24:1, by volume) and butanol water was performed and mixtures were analysed on 1% agarose gel in 1 × TAE buffer, 3h, 4.5 V cm^−1. Gel was stained in GelRed 3 × staining solution (Biotium, Fremont, CA, USA) for 30 min and photographed with Gel Doc XR+Gel Documentation System (Bio-Rad: Hercules, CA, USA).

Test [25] deals with Candida albicans Gu4. Description: microbe, parasite or virus in culture.
Test [26] has as its system Candida albicans B4. In words: microbe, parasite or virus in culture.
Test [27] deals with Candida krusei ATCC 6258. Description: microbe, parasite or virus in culture. The note with it: Pichia kudriavzevii, ATCC6258, 24 h, pH 7.

Molecules are shown by their SMILES. Converted amounts (≈) assume the structure as drawn. Where two headings read alike, the source gives them in different places.

What is called IC50 is the concentration at which inhibition is half-maximal. On to `N=C(N)NCCC[C@H](NC(=O)[C@H](CCCNC(=N)N)NC(=O)[C@H](CCCNC(=N)N)NC(=O)[C@H](CCCNC(=N)N)NC(=O)[C@H](CCCNC(=N)N)NC(=O)[C@H](CCCNC(=N)N)NC(=O)[C@H](CCCNC(=N)N)NC(=O)[C@@H](N)CCCNC(=N)N)C(=O)NCCNc1ccc2ncn3c4ccc(O)cc4c(=O)c1c23` [Compound 1-R8], for which the MIC90 in the test with Candida albicans Gu5 [1] worked out at 2 µg/mL (≈ 1.3 µM); against Candida albicans F5 [2], 1 µg/mL (≈ 0.648 µM); in test [3] (ATCC 9763, 24 h, pH 7) it was 1 µg/mL (≈ 0.648 µM); in test [4] (ATCC 22019, 24 h, pH 7) it was 0.25 µg/mL (≈ 0.162 µM); against Candida albicans B3 [6], 2 µg/mL (≈ 1.3 µM); against Candida krusei ATCC 6258 [7] (ATCC 6258, 24 h, pH 7), 0.5 µg/mL (≈ 0.324 µM). For the same molecule, the MIC90 in [8] (ATCC 90030, 24 h, pH 7) was 4 µg/mL (≈ 2.59 µM); in the test with Candida albicans Gu4 [9], 2 µg/mL (≈ 1.3 µM); in the test with Candida albicans B4 [10], 2 µg/mL (≈ 1.3 µM); in test [11] (ATCC 10231, 24 h, pH 7), 1 µg/mL (≈ 0.648 µM); against Candida albicans F2 [12], 1 µg/mL (≈ 0.648 µM). The same molecule showed an MICs in test [5] of at most 4 µg/mL. The MFC came out at 2 µg/mL (≈ 1.3 µM) against S. cerevisiae ATCC 9763; 128 µg/mL (≈ 82.9 µM) with C. glabrata DSM 11226; 16 µg/mL (≈ 10.4 µM) with C. krusei DSM 6128; 32 µg/mL (≈ 20.7 µM) with C. albicans ATCC 10231; 8 µg/mL (≈ 5.18 µM) against C. parapsilosis DSM 5784. Further, the IC50 in the test with HEPG2 (72 h) was 991 ± 97 nM; with HEK-293 (72 h), 1390 ± 99 nM.

On to `COc1cc(NS(C)(=O)=O)ccc1Nc1c2ccccc2nc2ccccc12` [m-AMSA], for which the IC50 on yeast topoisomerase II [13] was above 200 µM.

As to `NCCNc1ccc2ncn3c4ccc(O)cc4c(=O)c1c23` [Compound 1, 5-((2-Aminoethyl)amino)-8-hydroxy-6H-imidazo[4,5,1-de]acridin-6-one], the “IC50 HEK293/MIC90 (mycostatic selectivity index)” value in test [3] (HEK293 vs Saccharomyces cerevisiae ATCC 9763) was below 0.0058; in test [4] (HEK293 vs Candida parapsilosis ATCC 22019), below 0.0058; in the test with Candida krusei ATCC 6258 [7] (HEK293 vs Candida krusei ATCC 6258), below 0.0058; in test [8] (HEK293 vs Candida glabrata ATCC 90030), below 0.0058; in test [11] (HEK293 vs Candida albicans ATCC 10231, MIC converted to micromolar), below 0.0058. Further, the “IC50 HEPG2/MIC90 (mycostatic selectivity index)” value (in [3] (HEPG2 vs Saccharomyces cerevisiae ATCC 9763); in test [4] (HEPG2 vs Candida parapsilosis ATCC 22019); in the test with Candida krusei ATCC 6258 [7] (HEPG2 vs Candida krusei ATCC 6258); in test [8] (HEPG2 vs Candida glabrata ATCC 90030); in [11] (HEPG2 vs Candida albicans ATCC 10231)) was below 0.0038 in each case. Further, the MIC90 (in test [14]; in test [16]; with Candida albicans Gu5 [17]; against Candida albicans F5 [19]; in test [20]; in test [21] (ATCC10231)) was above 64 µg/mL throughout. For the same molecule, the MIC90 was above 64 µg/mL in test [21] (ATCC10231, 24 h, pH 7); above 64 µg/mL with Candida albicans F2 [22]; above 64 µg/mL against Candida albicans B3 [23]; above 64 µg/mL against Candida albicans Gu4 [25]; above 64 µg/mL with Candida albicans B4 [26]; above 64 µg/mL in the test with Candida krusei ATCC 6258 [27]. For the same molecule, in test [15], the “uptake and accumulation in fungal cells” value is “no significant accumulation”. Moreover, the “formation of DNA–yeast topoisomerase II cleavable complexes” value at yeast topoisomerase II [18] is given as “stimulated the formation of DNA–yeast topoisomerase II cleavable complexes”. For the same molecule, in the test on reference strains (Table 3), the “Antifungal Activity (level)” value was “−”. The “antifungal activity” value in the test on reference strains (as reported in Table 1) is listed as “no antifungal activity was observed”. Further, the “concentration that totally inhibited yeast topoisomerase II-mediated relaxation” value on yeast topoisomerase II [24] amounted to 50 µM. For the same molecule, the IC50 in the test with HEPG2 (Homo sapiens, HEPG2, 72 h treatment, MTT, ± SD, read-out: IC50 (antiproliferative activity)) turned out to be 364 ± 13 nM; in the test with HEK-293 (Homo sapiens, HEK293, 72 h treatment, MTT, ± SD, read-out: IC50 (antiproliferative activity)), 550 ± 125 nM.

Source of the values: paper PMC8705783, “The Effect of Conjugation with Octaarginine, a Cell-Penetrating Peptide on Antifungal Activity of Imidazoacridinone Derivative” (International Journal of Molecular Sciences, 2021).
